The test system of assay [1] is 4T1. The assay is described as follows: Induction of mitochondrial membrane potential loss in mouse 4T1 cells assessed as green fluorescence at 50 uM incubated for 24 hrs by JC-1 staining based flow cytometric analysis (reference value: 11.7%). It counts as cell-based. Background: Flow cytometry measures light scatter and fluorescence of single cells or particles in a stream.

Assay [2] deals with 4T1. The assay is described as follows: Induction of mitochondrial membrane potential loss in mouse 4T1 cells assessed as red fluorescence at 50 uM incubated for 24 hrs by JC-1 staining based flow cytometric analysis (reference value: 87.9%). It counts as cell-based.
Assay [3] deals with 4T1. The assay is described as follows: Anticancer activity against mouse 4T1 cells assessed as inhibition of cell growth incubated for 24 hrs by CCK-8 assay. It counts as functional, cell-based. The following applies: 4T1, 24 h. In general terms: Tetrazolium assays rely on reduction of a dye to a coloured formazan, in cell work by metabolically active cells.
Assay [4] deals with 4T1. The assay is described as follows: Anticancer activity against mouse 4T1 cells assessed as inhibition of cell growth incubated for 48 hrs by CCK-8 assay. It counts as functional, cell-based. The following applies: 4T1, 48 h.
The test system of assay [5] is 4T1. The assay is described as follows: Anticancer activity against mouse 4T1 cells assessed as inhibition of cell growth incubated for 72 hrs by CCK-8 assay. In kind it is functional, cell-based. The following applies: 4T1, 72 h.

Molecules are shown by their SMILES.

In the case of `N#CC(C#N)=NNc1cccc(Cl)c1`, the Activity with 4T1 [1] amounted to 48.4%; in the assay with 4T1 [2], 51.1%.
In the case of `CCCCCCCCCCOC(=O)C1CCC[N+]1(C)C` (configuration not stated), the IC50 is 204 µM with 4T1 [3], 136 µM with 4T1 [4] and 98 µM in the assay with 4T1 [5].
The matching figures for `CCCCCCCCCCCCCCOC(=O)C1CCC[N+]1(C)C` (configuration not stated): 165 µM, 166 µM and 57 µM.
For `CCOC(=O)C1CCC[N+]1(C)C` (configuration not stated), the half-maximal inhibitory concentration (IC50) is 1710 µM in the assay with 4T1 [3], 14000 µM in the assay on 4T1 [4] and 7890 µM in the assay on 4T1 [5].
As for `CCCCCCCCCCCCCCCCCCOC(=O)C1CCC[N+]1(C)C` (configuration not stated), the IC50 in the assay with 4T1 [3] came out at 2.42 µM; with 4T1 [4] it was 2.73 µM; in the assay with 4T1 [5], 2.01 µM.
For `CCCCCCOC(=O)C1CCC[N+]1(C)C` (configuration not stated) the same measures were 2550 µM, 1560 µM and 1100 µM.

A word on the IC50: it is the concentration that gives 50% inhibition.

The values are drawn from ChEMBL document CHEMBL5625202, “Synthesis, characterization and anti-breast cancer activities of stachydrine derivatives” (Eur J Med Chem, 2023).
